This is an account of results in patent publication US20070207121A1, “Methods of Using and Compositions Comprising Selective Cytokine Inhibitory Drugs for Treatment and Management of Macular Degeneration” (priority 2003, published 2007).

The subject of one series is TNF-α production. In words: Inhibition of TNF-α production following LPS-stimulation of human PBMC and human whole blood (in vitro pharmacology studies). Format: cell-based. The conditions noted are these: more potent than thalidomide. The text has this: One of the biological effects typically exerted by selective cytokine inhibitory drugs is the reduction of synthesis of TNF-α Specific selective cytokine inhibitory drugs enhance the degradation of TNF-αmRNA. TNF-α may play a pathological role in macular degeneration.
In a specific embodiment, the pharmacological properties of 3-(3,4-dimethoxy-phenyl)-3-(1-oxo-1,3-dihydro-isoindol-2-yl)-propionamide are characterized in in vitro studies. Studies examine the effects of the compound on the production of various cytokines. Inhibition of TNF-α production following LPS-stimulation of human PBMC and human whole blood by the compound is investigated in vitro. […] The pharmacological effects of 3-(3,4-dimethoxy-phenyl)-3-(1-oxo-1,3-dihydro-isoindol-2-yl)-propionamide may derive from its action as an inhibitor of the generation of inflammatory cytokines.

Another series concerns laser-induced CNVM. The conditions noted are these: intravitreal injection, monkeys; cited from earlier work.
The test system of the next series is patients with MD. To be noted: intravitreal injection, over a one-year period; cited from earlier work.
Another series deals with MD. The conditions noted are these: cited from earlier work.
The subject of series [1] is patients with macular degeneration. In words: Clinical study in patients with macular degeneration, adjuvant to photodynamic therapy with verteporfin. Format: in vivo, human. The conditions noted are these: about 20 mg/day as adjuvant for 20 weeks with verteporfin photodynamic therapy. Here is the method: Selective cytokine inhibitory drugs of the invention are administered in an amount of about 20 to about 1,200 mg per day to patients with macular degeneration. In a specific embodiment, clinical studies are performed with forty patients with macular degeneration, who are divided into two groups. The first group receives conventional treatment for closing the leaking choroidal vessels (characteristic of this disease) by photodynamic therapy with verteporfin. Opthalmol 1999 (117): 1329-1345. The second group receives the same conventional therapy with verteporfin and (+)-2-[1-(3-ethoxy-4 methoxyphenyl)-2-methylsulfonylethyl]-4 acetylaminoisoindoline 1,3-dione in an amount of about 20 mg/day as an adjuvant for 20 weeks.
However, the first group without (+)-2-[1-(3-ethoxy-4 methoxyphenyl)-2-methylsulfonylethyl]-4-acetylaminoisoindoline 1,3-dione experiences progressive reperfusion of the ablated vessels several weeks after treatment. Progressive visual loss follows which requires the photodynamic therapy to be repeated.

Turning to `COc1ccc(C(CC(N)=O)N2Cc3ccccc3C2=O)cc1OC` (stereo not shown) [3-(3,4-dimethoxy-phenyl)-3-(1-oxo-1,3-dihydro-isoindol-2-yl)-propionamide], in the series with TNF-α production, the “pharmacological activity profile, potency relative to thalidomide” value was “five to fifty”.
In the case of `C[C@]12C=CC(=O)C=C1CC[C@H]1[C@@H]3C[C@@H](O)[C@](O)(C(=O)CO)[C@@]3(C)C[C@H](O)[C@@]12F` [triamcinolone], the “growth of laser-induced CNVM” value in the series on laser-induced CNVM was “inhibits”. Also, the “prevention of severe visual loss” value with patients with MD is recorded as “fails to prevent severe visual loss”.
For the molecule interferon-α, the “efficacy at treating MD” value in the series with MD (clinical trial) is on record as “ineffective”. Besides, the adverse effects result in the series with MD (in vivo) was “high rate of adverse effects”.
For the molecule `CCOc1cc(C(CS(C)(=O)=O)N2C(=O)c3cccc(NC(C)=O)c3C2=O)ccc1OC` (single isomer, unassigned; (+)) [(+)-2-[1-(3-ethoxy-4 methoxyphenyl)-2-methylsulfonylethyl]-4 acetylaminoisoindoline 1,3-dione], in series [1], the “effects of the photodynamic therapy” value is reported as “indefinitely prolong” and the neovascular cascade entry is given as “sufficiently hindered”.
